Data published in US10479795B2 (Incyte Corporation, priority 2016, dated 2019).
Structures can show the parent of a compound that is named as a salt.

Legend:
[1] = molecular target: PI3Kγ (p110γ) Recombinant Human Protein (Homo sapiens (Human), UniProt P48736); assay: PI3K-γ Scintillation Proximity Assay; format: biochemical; conditions: read-out: PI3Kγ IC50
Protocol: [γ-^33P]ATP (10 mCi/mL) and Wheat Germ Agglutinin (WGA) YSi SPA Scintillation Beads was purchased from Perkin-Elmer (Waltham, Mass.). […] PI3Kγ (p110γ) Recombinant Human Protein was purchased from Life technology (Grand Island, N.Y.). ATP, MgCl2, DTT, EDTA, MOPS and CHAPS were purchased from Sigma-Aldrich (St. Louis, Mo.).
The kinase reaction was conducted in polystyrene 384-well Greiner Bio-one white plate from Thermo Fisher Scientific in a final volume of 25 μL. Inhibitors were first diluted serially in DMSO and added to the plate wells before the addition of other reaction components. The final concentration of DMSO in the assay was 2%. The PI3Kγ assay was carried out at room temperature in 20 mM MOPS, pH 6.7, 10 mM MgCl2, 5 mM DTT and CHAPS 0.03%. Reactions were initiated by the addition of ATP, the final reaction mixture consisted of 20 μM PIP2, 2 μM ATP, 0.5 μCi [γ-^33P] […] The final concentration of SPA beads is 1.0 mg/mL. After the plate sealing, plates were shaken overnight at room temperature and centrifuged at 1500 rpm for 10 min, the radioactivity of the product was determined by scintillation counting on Topcount (Perkin-Elmer). IC50 determination was performed by fitting the curve of percent of the solvent control activity versus the log of the inhibitor concentration using the GraphPad Prism 6.0 software.

[2] = molecular target: PI3Kδ (p110δ/p85α) Recombinant Human Protein (Homo sapiens (Human), UniProt O00329); assay: PI3Kδ Scintillation Proximity Assay; format: biochemical
Sequence of PI3Kδ (p110δ/p85α) Recombinant Human Protein (O00329 whole entry): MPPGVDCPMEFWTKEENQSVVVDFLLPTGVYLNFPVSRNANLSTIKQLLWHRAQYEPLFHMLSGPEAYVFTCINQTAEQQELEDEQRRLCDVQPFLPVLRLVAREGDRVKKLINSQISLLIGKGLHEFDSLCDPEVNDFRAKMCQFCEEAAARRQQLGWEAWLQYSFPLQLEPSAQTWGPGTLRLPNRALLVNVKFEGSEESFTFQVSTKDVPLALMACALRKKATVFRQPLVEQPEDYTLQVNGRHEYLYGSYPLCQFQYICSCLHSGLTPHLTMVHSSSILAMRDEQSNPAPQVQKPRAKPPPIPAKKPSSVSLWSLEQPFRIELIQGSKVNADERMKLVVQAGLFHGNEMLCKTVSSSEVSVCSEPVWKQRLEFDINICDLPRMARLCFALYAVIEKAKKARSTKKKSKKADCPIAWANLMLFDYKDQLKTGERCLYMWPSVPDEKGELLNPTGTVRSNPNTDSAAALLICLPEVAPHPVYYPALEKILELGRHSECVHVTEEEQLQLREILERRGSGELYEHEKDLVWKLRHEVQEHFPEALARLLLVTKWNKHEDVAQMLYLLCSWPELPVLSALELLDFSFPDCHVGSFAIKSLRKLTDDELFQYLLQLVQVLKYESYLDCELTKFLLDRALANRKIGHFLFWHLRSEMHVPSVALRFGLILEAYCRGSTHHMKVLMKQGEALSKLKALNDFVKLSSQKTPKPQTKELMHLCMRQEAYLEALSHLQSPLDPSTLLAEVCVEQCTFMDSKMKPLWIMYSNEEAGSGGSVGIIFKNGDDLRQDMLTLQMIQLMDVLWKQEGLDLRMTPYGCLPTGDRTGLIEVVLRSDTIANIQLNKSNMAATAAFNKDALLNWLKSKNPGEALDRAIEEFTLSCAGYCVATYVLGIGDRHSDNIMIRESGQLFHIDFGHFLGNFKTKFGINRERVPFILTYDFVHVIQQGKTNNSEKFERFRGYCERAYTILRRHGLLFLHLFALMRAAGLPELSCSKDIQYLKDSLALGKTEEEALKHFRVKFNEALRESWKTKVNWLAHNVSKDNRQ
Sequence of PI3Kδ (p110δ/p85α) Recombinant Human Protein (P27986 whole entry partner): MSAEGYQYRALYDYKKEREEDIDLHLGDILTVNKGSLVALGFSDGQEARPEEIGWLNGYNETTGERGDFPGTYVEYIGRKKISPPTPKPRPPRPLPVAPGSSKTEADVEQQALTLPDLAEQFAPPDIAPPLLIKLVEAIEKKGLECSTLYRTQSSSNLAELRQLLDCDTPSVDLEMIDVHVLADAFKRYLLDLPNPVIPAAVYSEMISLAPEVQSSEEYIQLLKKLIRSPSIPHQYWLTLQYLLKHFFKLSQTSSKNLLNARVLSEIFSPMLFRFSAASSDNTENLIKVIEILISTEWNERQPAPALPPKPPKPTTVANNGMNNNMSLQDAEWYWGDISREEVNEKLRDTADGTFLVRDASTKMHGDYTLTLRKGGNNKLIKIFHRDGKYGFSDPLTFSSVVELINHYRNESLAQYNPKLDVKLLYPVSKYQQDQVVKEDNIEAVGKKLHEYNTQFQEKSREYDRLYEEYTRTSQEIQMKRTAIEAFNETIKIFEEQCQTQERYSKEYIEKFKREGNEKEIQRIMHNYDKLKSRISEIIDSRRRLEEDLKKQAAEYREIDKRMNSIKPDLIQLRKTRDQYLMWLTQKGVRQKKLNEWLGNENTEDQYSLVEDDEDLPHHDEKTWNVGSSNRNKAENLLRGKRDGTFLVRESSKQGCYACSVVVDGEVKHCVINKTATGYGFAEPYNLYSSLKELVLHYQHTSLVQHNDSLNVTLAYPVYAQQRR
Excerpt: Example C. PI3Kδ Scintillation Proximity Assay
[γ-^33P]ATP (10 mCi/mL) and Wheat Germ Agglutinin (WGA) YSi SPA Scintillation Beads was purchased from Perkin-Elmer (Waltham, Mass.). Lipid kinase substrate, D-myo-Phosphatidylinositol 4,5-bisphosphate (PtdIns(4,5)P2)D (+)-sn-1,2-di-O-octanoylglyceryl, 3-O-phospho linked (PIP2), CAS 204858-53-7, was purchased from Echelon Biosciences (Salt Lake City, Utah). PI3Kδ (p110δ/p85α) Recombinant Human Protein was purchased from Eurofins (St Charles, Mo.). ATP, MgCl2, DTT, EDTA, MOPS and CHAPS were purchased from Sigma-Aldrich (St. Louis, Mo.).
The kinase reaction was conducted in polystyrene 384-well Greiner Bio-one white plate from Thermo Fisher Scientific in a final volume of 25 μL. Inhibitors were first diluted serially in DMSO and added to the plate wells before the addition of other reaction components. The final concentration of DMSO in the assay was 2%. The PI3Kδ assay was carried out at room temperature in 20 mM MOPS, pH 6.7, 10 mM MgCl2, 5 mM DTT and CHAPS 0.03%. Reactions were initiated by the addition of ATP, the final reaction mixture consisted of 20 μM PIP2, 2 μM ATP, 0.5 μCi [γ-^33P] ATP, 3.4 nM PI3Kδ. Reactions were incubated for 120 min and terminated by the addition of 40 μL SPA beads suspended in quench buffer: 163 mM potassium phosphate pH 7.8, 20% glycerol, 25 mM EDTA. The final concentration of SPA beads is 1.0 mg/mL. After the plate sealing, plates were shaken overnight at room temperature and centrifuged at 1500 rpm for 10 min, the radioactivity of the product was determined by scintillation counting on Topcount (Perkin-Elmer). IC50 determination was performed by fitting the curve of percent of the solvent control activity versus the log of the inhibitor concentration using the GraphPad Prism 6.0 software.

Sequence of PI3Kγ (p110γ) Recombinant Human Protein (P48736 whole entry): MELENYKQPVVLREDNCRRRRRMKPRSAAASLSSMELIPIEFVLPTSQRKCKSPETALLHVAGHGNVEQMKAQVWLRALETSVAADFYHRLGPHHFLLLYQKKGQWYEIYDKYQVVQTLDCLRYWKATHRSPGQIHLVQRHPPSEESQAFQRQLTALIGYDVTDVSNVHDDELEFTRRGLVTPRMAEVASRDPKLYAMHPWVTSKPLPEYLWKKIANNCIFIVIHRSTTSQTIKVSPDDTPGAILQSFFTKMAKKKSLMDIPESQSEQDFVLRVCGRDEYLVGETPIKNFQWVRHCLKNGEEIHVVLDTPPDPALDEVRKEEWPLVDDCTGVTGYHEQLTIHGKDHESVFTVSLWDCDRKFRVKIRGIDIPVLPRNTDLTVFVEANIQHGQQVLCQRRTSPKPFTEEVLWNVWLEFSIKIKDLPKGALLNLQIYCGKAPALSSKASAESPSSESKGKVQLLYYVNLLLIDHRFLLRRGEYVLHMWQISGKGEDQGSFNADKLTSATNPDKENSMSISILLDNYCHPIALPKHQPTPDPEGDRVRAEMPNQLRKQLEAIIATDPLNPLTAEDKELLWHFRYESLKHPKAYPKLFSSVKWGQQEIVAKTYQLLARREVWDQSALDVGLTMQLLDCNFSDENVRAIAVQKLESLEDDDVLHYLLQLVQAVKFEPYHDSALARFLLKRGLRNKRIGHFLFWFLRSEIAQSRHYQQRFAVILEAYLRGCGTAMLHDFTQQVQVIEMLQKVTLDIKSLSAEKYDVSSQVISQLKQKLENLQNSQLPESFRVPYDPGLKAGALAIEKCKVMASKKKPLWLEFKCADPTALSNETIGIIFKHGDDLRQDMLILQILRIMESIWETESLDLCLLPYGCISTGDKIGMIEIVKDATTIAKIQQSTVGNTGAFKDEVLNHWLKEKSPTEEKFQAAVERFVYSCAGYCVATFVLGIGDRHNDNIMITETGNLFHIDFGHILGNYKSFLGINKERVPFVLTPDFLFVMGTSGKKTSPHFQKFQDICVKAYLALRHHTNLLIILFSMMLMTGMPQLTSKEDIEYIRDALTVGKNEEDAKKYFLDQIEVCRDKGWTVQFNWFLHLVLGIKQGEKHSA

Which IC50 [1] does the source give for `Cc1ccc(S(C)(=O)=O)cc1-c1cnc2c(N)nc(C(=O)NCC3CCC(C(F)(F)F)CC3)cn12` (mixture of isomers) [Example 456, 8-amino-3-(2-methyl-5-(methylsulfonyl)phenyl)-N-((4-(trifluoromethyl)cyclohexyl)methyl)imidazo[1,2-a]pyrazine-6-carboxamide trifluoroacetate salt (1:1 cis/trans isomers)] here?
Its IC50 is 100 to 500 nM.

And the IC50 [2]?
Its IC50 is 100 to 500 nM.

`Cc1ccc(S(C)(=O)=O)cc1-c1cnc2c(N)nc(C(=O)NC3CCCN(CCO)C3)cn12` (racemic) [Example 460, 8-Amino-N-(1-(2-hydroxyethyl)piperidin-3-yl)-3-(2-methyl-5-(methylsulfonyl)phenyl)imidazo[1,2-a]pyrazine-6-carboxamide trifluoroacetate salt (racemic)] was tested. Which IC50 [1] did it give?
Its IC50 is 500 to 2000 nM.

What about the IC50 [2] of the same compound?
The IC50 was over 2000 nM.

Which IC50 [1] does the source give for `Cc1ccc(S(=O)(=O)[C@@H]2CCC[C@H](O)C2)cc1-c1cnc2c(N)ncnn12` (relative stereo) [Example 501, cis-3-((3-(4-Aminoimidazo[2,1-f][1,2,4]triazin-7-yl)-4-methylphenyl)sulfonyl)cyclohexan-1-ol] here?
Its IC50 is under 100 nM.

What about the IC50 [2] of the same compound?
Its IC50 is 500 to 2000 nM.

For `Cc1ccc(S(=O)(=O)NCC2(C)COC2)cc1-c1cnc2c(N)cccn12` [Example 3, 3-(8-Aminoimidazo[1,2-a]pyridin-3-yl)-4-methyl-N-[(3-methyloxetan-3-yl)methyl]benzenesulfonamide trifluoroacetate], which IC50 [1] is on record?
Its IC50 is 100 to 500 nM.

And the IC50 [2]?
The IC50 was over 2000 nM.

`CCS(=O)(=O)Nc1cc(-c2cnc3c(N)cc(Cl)cn23)c[nH]c1=O` [Example 6, N-[5-(8-Amino-6-chloroimidazo[1,2-a]pyridin-3-yl)-2-oxo-1,2-dihydropyridin-3-yl]ethanesulfonamide trifluoroacetate] was tested. Which IC50 [1] did it give?
Its IC50 is 500 to 2000 nM.

What about the IC50 [2] of the same compound?
Its IC50 is over 2000 nM.

For `CCOc1ncc(-c2cnc3c(N)cc(Cl)cn23)cc1NS(=O)(=O)CC` [Example 7, N-[5-(8-Amino-6-chloroimidazo[1,2-a]pyridin-3-yl)-2-ethoxypyridin-3-yl]ethanesulfonamide bis(trifluoroacetate)], which IC50 [1] is on record?
The IC50 was 100 to 500 nM.

What about the IC50 [2] of the same compound?
Its IC50 is 500 to 2000 nM.

How did the IC50 [1] turn out when `Cc1ccc(S(C)(=O)=O)cc1-c1cnc2c(N)nc(-c3ccccc3F)cn12` [Example 40, 6-(2-Fluorophenyl)-3-[2-methyl-5-(methylsulfonyl)phenyl]imidazo[1,2-a]pyrazin-8-amine trifluoroacetate] was run?
Its IC50 is under 100 nM.

And the IC50 [2]?
Its IC50 is 100 to 500 nM.

For `COc1ccc(-c2cnc3c(N)nccn23)cc1S(=O)(=O)N[C@H]1CC[C@H](O)CC1` [Example 43, 5-(8-Aminoimidazo[1,2-a]pyrazin-3-yl)-N-(trans-4-hydroxycyclohexyl)-2-methoxybenzenesulfonamide], which IC50 [1] is on record?
The IC50 was 100 to 500 nM.

What about the IC50 [2] of the same compound?
Its IC50 is under 100 nM.

How did the IC50 [1] turn out when `Cc1cc(-c2cnc3c(N)nccn23)cc(S(=O)(=O)N[C@H]2CC[C@H](O)CC2)c1` [Example 44, 3-(8-Aminoimidazo[1,2-a]pyrazin-3-yl)-N-(trans-4-hydroxycyclohexyl)-5-methylbenzenesulfonamide] was run?
The IC50 was 500 to 2000 nM.

And the IC50 [2]?
The IC50 was over 2000 nM.

Which results are given for `Nc1nccn2c(-c3ccc(F)c(S(=O)(=O)N[C@H]4CC[C@H](O)CC4)c3)cnc12` [Example 45, 5-(8-Aminoimidazo[1,2-a]pyrazin-3-yl)-2-fluoro-N-(trans-4-hydroxycyclohexyl)benzenesulfonamide]?
IC50 [1]: < 100 nM; IC50 [2]: 500 to 2000 nM

With `Nc1nccn2c(-c3ccc(Cl)c(S(=O)(=O)N[C@H]4CC[C@H](O)CC4)c3)cnc12` [Example 46, 5-(8-Aminoimidazo[1,2-a]pyrazin-3-yl)-2-chloro-N-(trans-4-hydroxycyclohexyl)benzenesulfonamide] as the compound, how does the IC50 [1] read?
The IC50 was under 100 nM.

And the IC50 [2]?
Its IC50 is 100 to 500 nM.

With `Cc1ccc(S(=O)(=O)N2CCC(O)CC2)cc1-c1cnc2c(N)ncnn12` [Example 66, 1-{[3-(4-Aminoimidazo[2,1-f][1,2,4]triazin-7-yl)-4-methylphenyl]sulfonyl}piperidin-4-ol] as the compound, how does the IC50 [1] read?
The IC50 was 100 to 500 nM.

And the IC50 [2]?
Its IC50 is over 2000 nM.

For `Cc1ccc(S(=O)(=O)NCC2CCOC2)cc1-c1cnc2c(N)ncnn12` (stereo not drawn) [Example 67, 3-(4-Aminoimidazo[2,1-f][1,2,4]triazin-7-yl)-4-methyl-N-(tetrahydrofuran-3-ylmethyl)benzenesulfonamide], which IC50 [1] is on record?
Its IC50 is 100 to 500 nM.

What about the IC50 [2] of the same compound?
The IC50 was over 2000 nM.

With `Cc1ccc(S(=O)(=O)NC23CC(CO)(C2)C3)cc1-c1cnc2c(N)ncnn12` [Example 105, 3-(4-Aminoimidazo[1,2-f][1,2,4]triazin-7-yl)-N-(3-(hydroxymethyl)bicyclo[1,1,1]pentan-1-yl)-4-methylbenzenesulfonamide trifluoroacetate salt] as the compound, how does the IC50 [1] read?
Its IC50 is under 100 nM.

What about the IC50 [2] of the same compound?
The IC50 was 500 to 2000 nM.

How did the IC50 [1] turn out when `Cc1ccc(S(=O)(=O)N2CCC(O)C3(CC3)C2)cc1-c1cnc2c(N)ncnn12` (stereo not drawn) [Example 119, 5-{[3-(4-aminoimidazo[2,1-f][1,2,4]triazin-7-yl)-4-methylphenyl]sulfonyl}-5-azaspiro[2.5]octan-8-ol] was run?
Its IC50 is 100 to 500 nM.

And the IC50 [2]?
Its IC50 is over 2000 nM.

For `Cc1ccc(S(=O)(=O)N2C3CCC2CC(O)C3)cc1-c1cnc2c(N)ncnn12` (stereo not drawn) [Example 120, 8-{[3-(4-aminoimidazo[2,1-f][1,2,4]triazin-7-yl)-4-methylphenyl]sulfonyl}-8-azabicyclo[3.2.1]octan-3-ol], which IC50 [1] is on record?
The IC50 was under 100 nM.

And the IC50 [2]?
The IC50 was 100 to 500 nM.

Which IC50 [1] does the source give for `Cc1ccc(S(=O)(=O)N2CC(N3CCOCC3)C2)cc1-c1cnc2c(N)ncnn12` [Example 146, 7-(2-methyl-5-((3-morpholinoazetidin-1-yl)sulfonyl)phenyl)imidazo[2,1-f][1,2,4]triazin-4-amine, 2TFA] here?
Its IC50 is under 100 nM.

And the IC50 [2]?
Its IC50 is 100 to 500 nM.

`Cc1ccc(S(=O)(=O)N(C)C2CC2)cc1-c1cnc2c(N)ncnn12` [Example 148, 3-(4-aminoimidazo[2,1-f][1,2,4]triazin-7-yl)-N-cyclopropyl-N,4-dimethylbenzenesulfonamide] was tested. Which IC50 [1] did it give?
The IC50 was 100 to 500 nM.

What about the IC50 [2] of the same compound?
The IC50 was 500 to 2000 nM.

With `Cc1ccc(S(=O)(=O)N2CCCCC23CC3)cc1-c1cnc2c(N)ncnn12` [Example 149, 7-(5-((4-azaspiro[2.5]octan-4-yl)sulfonyl)-2-methylphenyl)imidazo[2,1-f][1,2,4]triazin-4-amine] as the compound, how does the IC50 [1] read?
The IC50 was under 100 nM.

What about the IC50 [2] of the same compound?
Its IC50 is 100 to 500 nM.

For `Cc1ccc(S(C)(=O)=O)cc1-c1cnc2c(N)nc(C3CCOCC3)cn12` [Example 536, 3-(2-Methyl-5-(methylsulfonyl)phenyl)-6-(tetrahydro-2H-pyran-4-yl)imidazo[1,2-a]pyrazin-8-amine trifluoroacetate], which IC50 [1] is on record?
The IC50 was under 100 nM.

Which IC50 [1] does the source give for `CC(=O)N1CCC(c2cn3c(-c4cc(S(C)(=O)=O)ccc4C)cnc3c(N)n2)CC1` [Example 537, 1-(4-(8-Amino-3-(2-methyl-5-(methylsulfonyl)phenyl)imidazo[1,2-a]pyrazin-6-yl)piperidin-1-yl)ethan-1-one trifluoroacetate] here?
The IC50 was under 100 nM.

For `COC(=O)N1CCC(c2cn3c(-c4cc(S(C)(=O)=O)ccc4C)cnc3c(N)n2)C1` (stereo not drawn) [Example 538, Methyl 3-(8-amino-3-(2-methyl-5-(methylsulfonyl)phenyl)imidazo[1,2-a]pyrazin-6-yl)pyrrolidine-1-carboxylate trifluoroacetate], which IC50 [1] is on record?
The IC50 was 100 to 500 nM.

`Cc1ccc(S(=O)(=O)Nc2ccc(C(=O)NCC(F)(F)F)nc2)cc1-c1cnc2c(N)ncnn12` [Example 539, 5-((3-(4-Aminoimidazo[2,1-f][1,2,4]triazin-7-yl)-4-methylphenyl)sulfonamido)-N-(2,2,2-trifluoroethyl)picolinamide trifluoroacetate] was tested. Which IC50 [1] did it give?
Its IC50 is under 100 nM.
